Assay results taken from patent US20090221642A1, “MUSCARINIC RECEPTOR AGONISTS, COMPOSITIONS, METHODS OF TREATMENT THEREOF, AND PROCESSES FOR PREPARATION THEREOF-176” (AstraZeneca AB, priority 2008, published 2009).
pEC50: −log10 of the molar value. Read-outs that look alike come from different tables or passages of the source.

Columns and labels:
[1] = biological target: T1, hM1 (human Muscarinic receptor subtype 1) (Homo sapiens, UniProt P11229); assay: Human M1 calcium mobilization FLIPR assay; assay type: cell-based; settings: hM1 expressed in CHO cells, intracellular Ca2+ release; for pEC50: read-out: hM1 EC50
T1 construct: expressed in transfected cells; host or cells: CHO cells (Chinese hamster ovary cells, ATCC)
T1 sequence (P11229 1-460): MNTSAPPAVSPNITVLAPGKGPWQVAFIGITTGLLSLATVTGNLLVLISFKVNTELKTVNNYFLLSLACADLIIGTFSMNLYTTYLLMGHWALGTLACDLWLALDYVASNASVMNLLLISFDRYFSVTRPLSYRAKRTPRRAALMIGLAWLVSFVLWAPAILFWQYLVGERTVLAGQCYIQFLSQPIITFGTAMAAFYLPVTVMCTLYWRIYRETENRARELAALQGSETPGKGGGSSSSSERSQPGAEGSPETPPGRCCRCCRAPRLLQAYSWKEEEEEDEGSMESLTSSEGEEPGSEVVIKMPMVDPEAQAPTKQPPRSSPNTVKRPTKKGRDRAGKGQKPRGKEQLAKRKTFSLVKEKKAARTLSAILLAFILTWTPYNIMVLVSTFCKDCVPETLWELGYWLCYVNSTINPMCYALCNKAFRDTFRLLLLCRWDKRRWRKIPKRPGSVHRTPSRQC
In short: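 CHO cells expressing the receptor, dye-loaded at 37°C for 60 min, read on FLIPR at 510-570 nm. Agonism taken from compound-induced Ca2+ rise (max RFU for M1); M3/M5 inhibition measured against 2 nM acetylcholine using max minus min RFU. 10-point threefold dilutions, sigmoidal fits.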

[2] = biological target: T2, cloned human M2 receptor (human Muscarinic receptor subtype 2) (Homo sapiens, UniProt P08172); assay: hM2 receptor GTPγS binding; assay type: biochemical; settings: CHO cell membranes expressing hM2, [35S]GTPγS binding; for pEC50: read-out: hM2 EC50
T2 construct: purchased Perkin-Elmer RBHM2M; host or cells: Chinese hamster ovary cells (CHO) membranes
T2 sequence (P08172 1-466): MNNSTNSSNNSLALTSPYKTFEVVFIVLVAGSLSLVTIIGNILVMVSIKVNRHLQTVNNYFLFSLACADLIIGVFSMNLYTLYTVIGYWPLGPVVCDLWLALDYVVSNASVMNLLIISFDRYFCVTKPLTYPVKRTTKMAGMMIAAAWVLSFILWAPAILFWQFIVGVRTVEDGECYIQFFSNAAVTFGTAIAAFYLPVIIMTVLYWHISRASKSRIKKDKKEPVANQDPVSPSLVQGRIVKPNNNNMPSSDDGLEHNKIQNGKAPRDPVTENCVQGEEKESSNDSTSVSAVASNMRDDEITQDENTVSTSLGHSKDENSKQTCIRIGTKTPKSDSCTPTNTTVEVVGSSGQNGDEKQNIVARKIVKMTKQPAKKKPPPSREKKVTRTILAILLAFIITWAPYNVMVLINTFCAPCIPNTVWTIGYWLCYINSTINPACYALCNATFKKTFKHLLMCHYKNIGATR
In short: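 CHO-cell membranes expressing human M2 receptor, scintillation-bead [35S]GTPγS binding (0.4 nM) with 12.5 μM GDP, pH 7.4 Hepes buffer, 60 min at room temperature. Agonism: stimulation vs 30 μM acetylcholine maximum; antagonism: reversal of 2 μM acetylcholine stimulation. EC50/IC50/Emax from 10-point sigmoidal fits.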

`COC(=O)N1CCC(C)(N2CCC(N3C(=O)Cc4cc(F)c(C)cc43)CC2)C1` (single isomer, unassigned) [Example 83, methyl 3-(4-(5-fluoro-6-methyl-2-oxoindolin-1-yl)piperidin-1-yl)-3-methylpyrrolidine-1-carboxylate] was tested, and the EC50 ([1]; hM1 EC50 (nM)) was 26.1 nM and the EC50 ([2]; hM2 EC50 (nM)) was 2840 nM.
`C#CCOC(=O)N1CCC(C)(N2CCC(n3c(=O)[nH]c4ccc(C)cc43)CC2)C1` (single isomer, unassigned) [Example 41, prop-2-ynyl 3-methyl-3-(4-(6-methyl-2-oxo-2,3-dihydro-1H-benzo[d]imidazol-1-yl)piperidin-1-yl)pyrrolidine-1-carboxylate] showed a pEC50 [1] of 7.63 and a pEC50 [2] of 5.65.
With `CCOC(=O)N1CCC(C)(N2CCC(n3c(=O)[nH]c4cc(C)ccc43)CC2)C1` (single isomer, unassigned) [Example 12, ethyl 3-methyl-3-(4-(5-methyl-2-oxo-2,3-dihydro-1H-benzo[d]imidazol-1-yl)piperidin-1-yl)pyrrolidine-1-carboxylate] the pEC50 [1] was 8.00 and the pEC50 [2] was 6.11.
Work on `CC#CCOC(=O)N1CCC(C)(N2CCC(n3c(=O)[nH]c4ccccc43)CC2)C1` (single isomer, unassigned) [Example 33, but-2-ynyl 3-methyl-3-(4-(2-oxo-2,3-dihydro-1H-benzo[d]imidazol-1-yl)piperidin-1-yl)pyrrolidine-1-carboxylate] yielded a pEC50 [1] of 8.77 and a pEC50 [2] of 6.98.
With `CCOC(=O)N1CCC(C)(N2CCC(N3C(=O)Cc4ccc(F)cc43)CC2)C1` (single isomer, unassigned) [Example 75, ethyl 3-(4-(6-fluoro-2-oxoindolin-1-yl)piperidin-1-yl)-3-methylpyrrolidine-1-carboxylate] the pEC50 [1] was 7.32 and the pEC50 [2] was 5.58.
`COC(=O)N1CCC(C)(N2CCC(n3c(=O)[nH]c4ccc(C)cc43)CC2)C1` (stereo not shown) [Example 17, methyl 3-methyl-3-(4-(6-methyl-2-oxo-2,3-dihydro-1H-benzo[d]imidazol-1-yl)piperidin-1-yl)pyrrolidine-1-carboxylate] was tested, and the pEC50 [1] was 8.01 and the pEC50 [2] was 6.15.
With `CCOC(=O)N1CCC(C)(N2CCC(N3C(=O)Cc4ccc(C)cc43)CC2)C1` (single isomer, unassigned) [Example 69, ethyl 3-methyl-3-(4-(6-methyl-2-oxoindolin-1-yl)piperidin-1-yl)pyrrolidine-1-carboxylate] the pEC50 [1] was 7.96 and the pEC50 [2] was 5.73.
`CC1(N2CCC(n3c(=O)[nH]c4ccccc43)CC2)CCN(C(=O)OCCF)C1` (single isomer, unassigned) [Example 32, 2-fluoroethyl 3-methyl-3-(4-(2-oxo-2,3-dihydro-1H-benzo[d]imidazol-1-yl)piperidin-1-yl)pyrrolidine-1-carboxylate] showed a pEC50 [1] of 7.28 and a pEC50 [2] of 5.23.
